In one test the target is T1, human CRF2a receptor (Homo sapiens, UniProt Q13324).
T1 construct: expressed in transfected cells; host or cells: TeloHEAC cells
T1 sequence (Q13324 1-411): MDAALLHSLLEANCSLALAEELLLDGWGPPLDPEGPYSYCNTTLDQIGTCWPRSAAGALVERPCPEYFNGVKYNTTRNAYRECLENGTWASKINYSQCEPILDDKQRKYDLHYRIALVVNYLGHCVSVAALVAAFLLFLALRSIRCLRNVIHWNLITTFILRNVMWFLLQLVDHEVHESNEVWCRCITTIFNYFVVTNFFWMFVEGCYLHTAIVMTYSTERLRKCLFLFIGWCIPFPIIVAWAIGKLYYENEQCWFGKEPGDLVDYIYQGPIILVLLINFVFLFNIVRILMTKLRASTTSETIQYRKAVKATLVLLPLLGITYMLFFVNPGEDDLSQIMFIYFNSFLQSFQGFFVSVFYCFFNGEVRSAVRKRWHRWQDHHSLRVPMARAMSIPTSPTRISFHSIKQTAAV
Put plainly: Activity at human CRF2a receptor, cAMP functional assay in TeloHEAC cells. The format is cell-based. Particulars: TeloHEAC cells stably expressing human CRF2a receptor, relative to urocortin 2 (100 nM = 100%). The method, boiled down: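 cAMP accumulation was measured by HTRF 665/620 nm ratio after 30 min at 37° C compound exposure (16 twofold dilutions) of CRF2a-expressing TeloHEAC cells, 10000/well, in HEPES-buffered HBSS plus IBMX. Activity was normalised to urocortin 2 at 100 nM (100%), and EC50 was the concentration giving half-maximal activation.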

The target in another test is T2, CFR1R receptor (Homo sapiens, UniProt P34998).
T2 construct: host or cells: CHO-K1 (clone 2)
T2 sequence (P34998 24-415): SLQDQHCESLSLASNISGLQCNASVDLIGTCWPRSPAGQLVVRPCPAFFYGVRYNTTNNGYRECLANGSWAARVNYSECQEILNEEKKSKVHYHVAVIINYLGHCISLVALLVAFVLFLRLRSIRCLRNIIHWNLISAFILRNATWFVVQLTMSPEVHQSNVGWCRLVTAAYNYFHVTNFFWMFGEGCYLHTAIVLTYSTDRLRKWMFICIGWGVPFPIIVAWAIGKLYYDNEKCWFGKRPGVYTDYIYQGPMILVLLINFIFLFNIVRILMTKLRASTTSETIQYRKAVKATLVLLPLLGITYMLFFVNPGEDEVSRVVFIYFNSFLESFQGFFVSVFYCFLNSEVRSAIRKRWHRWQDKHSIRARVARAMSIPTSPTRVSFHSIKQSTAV
Put plainly: Activity at anti-target CFR1R receptor, cAMP assay in CRF1R-overexpression CHO-K1 cells. Format: cell-based. Particulars: 100% = Sauvagine at 100 nM; for EC50: cAMP. The method, boiled down:
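The method mirrors that used with TeloHAEC cells. Here, thawed clone 2 cells seeded at 4000 cells/well are tested, and 100 nM Sauvagine sets the top of the activation scale.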
On the technique in general: cAMP levels reflect the balance of adenylyl cyclase and phosphodiesterase activity.

*1 amine or outer side, *2 acyl side, *3 side chain or, on linkers, in order; H or OH if unused. Where a SMILES comes first, the peptide text is derived from it. Side-chain parts run from the residue outwards. [ ]: non-standard residue; d: D form. The star is where a group is joined. C18 diacid = O=C(O)CCCCCCCCCCCCCCCCC(=O)*; γGlu = O=C(O)[C@H](CCC(=O)[*:2])N[*:1]; Nva = CCC[C@H](N)C(=O)O; AEEA = NCCOCCOCC(=O)O; Aib = CC(C)(N)C(=O)O

As usually defined, the EC50 is the concentration at which the effect is half-maximal. A lower EC50 goes with greater potency. For `CC[C@H](C)[C@H](NC(=O)[C@H](CCC(N)=O)NC(=O)C(C)(C)NC(=O)[C@H](CC(N)=O)NC(=O)[C@@H](NC(=O)[C@H](CCC(=O)O)NC(=O)[C@H](C)NC(=O)[C@H](CCC(N)=O)NC(=O)[C@H](CCC(=O)O)NC(=O)[C@H](CCCNC(=N)N)NC(=O)[C@H](CCC(N)=O)NC(=O)[C@H](CCCCN)NC(=O)[C@H](CCCCN)NC(=O)[C@H](CCC(N)=O)NC(=O)[C@H](CCCCN)NC(=O)[C@H](CCC(=O)O)NC(=O)[C@H](CCC(N)=O)NC(=O)[C@H](CCC(=O)O)NC(=O)[C@H](CC(C)C)NC(=O)[C@H](CC(C)C)NC(=O)[C@@H](NC(=O)[C@H](CCCCN)NC(=O)[C@H](CCCCNC(=O)COCCOCCNC(=O)COCCOCCNC(=O)CC[C@H](NC(=O)CCCCCCCCCCCCCCCCC(=O)O)C(=O)O)NC(=O)[C@H](CC(C)C)NC(=O)[C@H](CCCCN)NC(=O)[C@@H](NC(=O)[C@@H]1CCCN1C(=O)[C@H](NC(=O)[C@H](CC(=O)O)NC(=O)[C@H](CC(C)C)NC(=O)[C@H](CO)NC(=O)[C@H](CC(C)C)NC(=O)[C@@H](NC(C)=O)C(C)C)C(C)C)[C@@H](C)CC)[C@@H](C)CC)[C@@H](C)O)C(=O)N[C@@H](CC(C)C)C(=O)N[C@@H](C)C(=O)N[C@@H](CCC(N)=O)C(=O)N[C@H](C(N)=O)C(C)C` [compound 99] (Ac-VLSLD[dV]PIKLK([AEEA-AEEA-γGlu-C18 diacid])KILLEQEKQKKQREQAETN[Aib]QILAQV-NH2), the EC50 at human CRF2a receptor was 6.07 nM. Also, on CFR1R receptor, the “Emax (% I)” value amounted to 0 % I and the concentration giving a half-maximal response (EC50) is above 250 nM.
For `CC[C@H](C)[C@H](NC(=O)[C@H](CCC(N)=O)NC(=O)[C@H](C)NC(=O)[C@H](CC(N)=O)NC(=O)[C@@H](NC(=O)[C@H](CCC(=O)O)NC(=O)[C@H](C)NC(=O)[C@H](CCC(N)=O)NC(=O)[C@H](CCC(=O)O)NC(=O)[C@H](CCCNC(=N)N)NC(=O)[C@H](CCC(N)=O)NC(=O)[C@H](CCCCN)NC(=O)[C@H](CCCCN)NC(=O)[C@H](CCC(N)=O)NC(=O)[C@H](CCCCN)NC(=O)[C@H](CCC(=O)O)NC(=O)[C@H](CCC(N)=O)NC(=O)[C@H](CCC(=O)O)NC(=O)[C@H](CC(C)C)NC(=O)[C@H](CC(C)C)NC(=O)[C@@H](NC(=O)[C@H](CCCCN)NC(=O)[C@H](CCCCNC(=O)COCCOCCNC(=O)COCCOCCNC(=O)CC[C@H](NC(=O)CCCCCCCCCCCCCCCCC(=O)O)C(=O)O)NC(=O)[C@H](CC(C)C)NC(=O)[C@H](CCCCN)NC(=O)[C@@H](NC(=O)[C@@H]1CCCN1C(=O)[C@H](NC(=O)[C@H](CC(=O)O)NC(=O)[C@H](CC(C)C)NC(=O)[C@H](CO)NC(=O)[C@H](CC(C)C)NC(=O)[C@@H](NC(C)=O)C(C)C)C(C)C)[C@@H](C)CC)[C@@H](C)CC)[C@@H](C)O)C(=O)N[C@@H](CC(C)C)C(=O)N[C@@H](C)C(=O)N[C@@H](CCC(N)=O)C(=O)N[C@H](C(N)=O)C(C)C` [compound 101] (Ac-VLSLD[dV]PIKLK([AEEA-AEEA-γGlu-C18 diacid])KILLEQEKQKKQREQAETNAQILAQV-NH2), the EC50 on human CRF2a receptor is 1.74 nM; at CFR1R receptor it was above 250 nM. Besides, at CFR1R receptor, the “Emax (% I)” value is given as 0 % I.
Regarding `CC[C@H](C)[C@H](NC(C)=O)C(=O)N[C@H](C(=O)N[C@@H](CC(C)C)C(=O)N[C@@H](CO)C(=O)N[C@@H](CC(C)C)C(=O)N[C@@H](CC(=O)O)C(=O)N[C@H](C(=O)N1CCC[C@H]1C(=O)N[C@H](C(=O)N[C@@H](CCCCN)C(=O)N[C@@H](CC(C)C)C(=O)N[C@@H](CCCCNC(=O)COCCOCCNC(=O)COCCOCCNC(=O)CC[C@H](NC(=O)CCCCCCCCCCCCCCCCC(=O)O)C(=O)O)C(=O)N[C@@H](CCCCN)C(=O)N[C@H](C(=O)N[C@@H](CC(C)C)C(=O)N[C@@H](CC(C)C)C(=O)N[C@@H](CCC(=O)O)C(=O)N[C@@H](CCC(N)=O)C(=O)N[C@@H](CCC(=O)O)C(=O)N[C@@H](CCCCN)C(=O)N[C@@H](CCC(N)=O)C(=O)N[C@@H](CCCCN)C(=O)N[C@@H](CCCCN)C(=O)N[C@@H](CCC(N)=O)C(=O)N[C@@H](CCCNC(=N)N)C(=O)N[C@@H](CCC(=O)O)C(=O)N[C@@H](CCC(N)=O)C(=O)N[C@@H](C)C(=O)N[C@@H](CCC(=O)O)C(=O)N[C@H](C(=O)N[C@@H](CC(N)=O)C(=O)N[C@H](C(=O)N[C@@H](CCC(N)=O)C(=O)N[C@H](C(=O)N[C@@H](CC(C)C)C(=O)N[C@@H](C)C(=O)N[C@@H](CCC(N)=O)C(=O)N[C@H](C(N)=O)C(C)C)[C@@H](C)CC)C(C)C)[C@@H](C)O)[C@@H](C)CC)[C@@H](C)CC)C(C)C)C(C)C` [compound 102] (Ac-IVLSLDVPIKLK([AEEA-AEEA-γGlu-C18 diacid])KILLEQEKQKKQREQAETNVQILAQV-NH2), the EC50 on human CRF2a receptor turned out to be 17.6 nM. Moreover, on CFR1R receptor, the “Emax (% I)” value is −5 % I and the EC50 is above 250 nM.
On the same counts, the results for `CC[C@H](C)[C@H](NC(C)=O)C(=O)N[C@H](C(=O)N[C@@H](CC(C)C)C(=O)N[C@@H](CO)C(=O)N[C@@H](CC(C)C)C(=O)N[C@@H](CC(=O)O)C(=O)N[C@@H](C(=O)N1CCC[C@H]1C(=O)N[C@H](C(=O)N[C@@H](CCCCN)C(=O)N[C@@H](CC(C)C)C(=O)N[C@@H](CCCCNC(=O)COCCOCCNC(=O)COCCOCCNC(=O)CC[C@H](NC(=O)CCCCCCCCCCCCCCCCC(=O)O)C(=O)O)C(=O)N[C@@H](CCCCN)C(=O)N[C@H](C(=O)N[C@@H](CC(C)C)C(=O)N[C@@H](CC(C)C)C(=O)N[C@@H](CCC(=O)O)C(=O)N[C@@H](CCC(N)=O)C(=O)N[C@@H](CCC(=O)O)C(=O)N[C@@H](CCCCN)C(=O)N[C@@H](CCC(N)=O)C(=O)N[C@@H](CCCCN)C(=O)N[C@@H](CCCCN)C(=O)N[C@@H](CCC(N)=O)C(=O)N[C@@H](CCCNC(=N)N)C(=O)N[C@@H](CCC(=O)O)C(=O)N[C@@H](CCC(N)=O)C(=O)N[C@@H](C)C(=O)N[C@@H](CCC(=O)O)C(=O)N[C@H](C(=O)N[C@@H](CC(N)=O)C(=O)N[C@H](C(=O)N[C@@H](CCC(N)=O)C(=O)N[C@H](C(=O)N[C@@H](CC(C)C)C(=O)N[C@@H](C)C(=O)N[C@@H](CCC(N)=O)C(=O)N[C@H](C(N)=O)C(C)C)[C@@H](C)CC)C(C)C)[C@@H](C)O)[C@@H](C)CC)[C@@H](C)CC)C(C)C)C(C)C` [compound 103] (Ac-IVLSLD[dV]PIKLK([AEEA-AEEA-γGlu-C18 diacid])KILLEQEKQKKQREQAETNVQILAQV-NH2) are 3.09 nM, 3 % I and above 250 nM.
For `CCC[C@H](NC(=O)[C@H](CC(N)=O)NC(=O)[C@@H](NC(=O)[C@H](CCC(=O)O)NC(=O)[C@H](C)NC(=O)[C@H](CCC(N)=O)NC(=O)[C@H](CCC(=O)O)NC(=O)[C@H](CCCNC(=N)N)NC(=O)[C@H](CCC(N)=O)NC(=O)[C@H](CCCCN)NC(=O)[C@H](CCCCN)NC(=O)[C@H](CCC(N)=O)NC(=O)[C@H](CCCCN)NC(=O)[C@H](CCC(=O)O)NC(=O)[C@H](CCC(N)=O)NC(=O)[C@H](CCC(=O)O)NC(=O)[C@H](CC(C)C)NC(=O)[C@H](CC(C)C)NC(=O)[C@@H](NC(=O)[C@H](CCCCN)NC(=O)[C@H](CCCCNC(=O)COCCOCCNC(=O)COCCOCCNC(=O)CC[C@H](NC(=O)CCCCCCCCCCCCCCCCC(=O)O)C(=O)O)NC(=O)[C@H](CC(C)C)NC(=O)[C@H](CCCCN)NC(=O)[C@@H](NC(=O)[C@@H]1CCCN1C(=O)[C@H](NC(=O)[C@H](CC(=O)O)NC(=O)[C@H](CC(C)C)NC(=O)[C@H](CO)NC(=O)[C@H](CC(C)C)NC(=O)[C@@H](NC(=O)[C@@H](NC(C)=O)[C@@H](C)CC)C(C)C)C(C)C)[C@@H](C)CC)[C@@H](C)CC)[C@@H](C)O)C(=O)N[C@@H](CCC(N)=O)C(=O)N[C@H](C(=O)N[C@@H](CC(C)C)C(=O)N[C@@H](C)C(=O)N[C@@H](CCC(N)=O)C(=O)N[C@H](C(N)=O)C(C)C)[C@@H](C)CC` [compound 105] (Ac-IVLSLD[dV]PIKLK([AEEA-AEEA-γGlu-C18 diacid])KILLEQEKQKKQREQAETN[Nva]QILAQV-NH2), in that order: 0.87 nM, 10 % I and above 250 nM.

The values above are taken from patent publication US20260001928A1 (CORTERIA PHARMACEUTICALS, priority 2022, published 2026).
